# From the kinase profiling compilation of Christmann-Franck et al. (2016)
# “And” between values parts separate entries of the source, which are not always exact repeats. Equal values may be shown once.
# Legend:
# Assay in all cases: radiometric filter-binding kinase assay, Kinase HotSpot
# Details in all cases: compound 0.5 µM; ATP 10 µM
# ACVR1 (human) = ACVR1 (human) (UniProt Q04771)
# ADRBK1 (human) = ADRBK1 (human) (UniProt P25098)
# BTK (human) = BTK (human) (UniProt Q06187)
# CDK4 CCND1 (human) = CDK4 CCND1 (human) (UniProt P24385+P11802)
# CHEK1 (human) = CHEK1 (human) (UniProt O14757)
# CSNK1G2 (human) = CSNK1G2 (human) (UniProt P78368)
# CSNK2A1 (human) = CSNK2A1 (human) (UniProt P68400)
# DAPK2 (human) = DAPK2 (human) (UniProt Q9UIK4)
# DYRK1A (human) = DYRK1A (human) (UniProt Q13627)
# FGR (human) = FGR (human) (UniProt P09769)
# Chain of FGR (human) (P09769 whole entry, looked up): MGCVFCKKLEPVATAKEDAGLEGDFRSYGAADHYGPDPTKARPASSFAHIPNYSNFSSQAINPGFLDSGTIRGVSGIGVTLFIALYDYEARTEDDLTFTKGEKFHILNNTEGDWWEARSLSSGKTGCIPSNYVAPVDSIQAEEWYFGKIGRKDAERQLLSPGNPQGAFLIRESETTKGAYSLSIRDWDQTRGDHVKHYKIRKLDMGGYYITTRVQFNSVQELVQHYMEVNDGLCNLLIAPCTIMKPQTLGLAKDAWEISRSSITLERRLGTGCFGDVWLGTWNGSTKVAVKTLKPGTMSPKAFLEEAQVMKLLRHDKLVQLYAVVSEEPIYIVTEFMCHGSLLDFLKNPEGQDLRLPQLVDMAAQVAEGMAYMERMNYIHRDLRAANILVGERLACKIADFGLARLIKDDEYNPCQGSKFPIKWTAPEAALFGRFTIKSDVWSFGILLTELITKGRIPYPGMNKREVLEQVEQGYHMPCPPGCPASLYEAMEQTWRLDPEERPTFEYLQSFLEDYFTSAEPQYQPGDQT
# GSK3A (human) = GSK3A (human) (UniProt P49840)
# HIPK1 (human) = HIPK1 (human) (UniProt Q86Z02)
# Chain of HIPK1 (human) (Q86Z02 whole entry, looked up): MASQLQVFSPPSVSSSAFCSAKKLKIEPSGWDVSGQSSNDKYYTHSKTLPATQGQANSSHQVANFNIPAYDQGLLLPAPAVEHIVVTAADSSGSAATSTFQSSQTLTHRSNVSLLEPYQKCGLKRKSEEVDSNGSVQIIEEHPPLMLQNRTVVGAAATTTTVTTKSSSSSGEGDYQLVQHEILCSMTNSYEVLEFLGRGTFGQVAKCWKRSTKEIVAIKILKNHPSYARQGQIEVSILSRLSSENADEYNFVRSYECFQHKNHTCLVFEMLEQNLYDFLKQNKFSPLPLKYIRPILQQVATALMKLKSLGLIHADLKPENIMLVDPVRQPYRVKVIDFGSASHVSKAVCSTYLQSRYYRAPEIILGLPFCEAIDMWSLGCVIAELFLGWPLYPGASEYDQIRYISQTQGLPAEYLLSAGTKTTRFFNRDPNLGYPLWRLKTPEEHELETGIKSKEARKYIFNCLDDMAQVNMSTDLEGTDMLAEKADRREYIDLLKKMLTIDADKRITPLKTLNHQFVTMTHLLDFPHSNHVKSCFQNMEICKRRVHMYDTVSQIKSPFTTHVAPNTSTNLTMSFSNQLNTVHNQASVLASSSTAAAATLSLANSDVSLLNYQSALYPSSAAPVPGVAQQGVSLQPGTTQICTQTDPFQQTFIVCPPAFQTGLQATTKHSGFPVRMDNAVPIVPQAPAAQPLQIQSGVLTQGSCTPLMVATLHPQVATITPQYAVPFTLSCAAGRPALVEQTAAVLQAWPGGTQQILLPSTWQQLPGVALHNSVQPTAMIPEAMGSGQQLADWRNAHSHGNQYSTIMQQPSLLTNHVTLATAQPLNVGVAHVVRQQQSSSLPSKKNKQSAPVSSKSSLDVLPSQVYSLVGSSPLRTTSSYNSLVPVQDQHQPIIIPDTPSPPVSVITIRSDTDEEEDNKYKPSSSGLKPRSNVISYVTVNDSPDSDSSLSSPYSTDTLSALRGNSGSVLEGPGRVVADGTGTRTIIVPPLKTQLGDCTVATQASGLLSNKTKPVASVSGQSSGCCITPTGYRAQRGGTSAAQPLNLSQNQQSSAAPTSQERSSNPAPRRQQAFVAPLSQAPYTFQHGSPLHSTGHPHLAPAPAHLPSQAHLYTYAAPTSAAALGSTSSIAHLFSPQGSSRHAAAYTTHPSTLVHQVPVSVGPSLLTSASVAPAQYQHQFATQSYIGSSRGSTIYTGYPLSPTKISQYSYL
# IRAK4 (human) = IRAK4 (human) (UniProt Q9NWZ3)
# LRRK2 (human) = LRRK2 (human) (UniProt Q5S007)
# Chain of LRRK2 (human) (Q5S007 whole entry, looked up): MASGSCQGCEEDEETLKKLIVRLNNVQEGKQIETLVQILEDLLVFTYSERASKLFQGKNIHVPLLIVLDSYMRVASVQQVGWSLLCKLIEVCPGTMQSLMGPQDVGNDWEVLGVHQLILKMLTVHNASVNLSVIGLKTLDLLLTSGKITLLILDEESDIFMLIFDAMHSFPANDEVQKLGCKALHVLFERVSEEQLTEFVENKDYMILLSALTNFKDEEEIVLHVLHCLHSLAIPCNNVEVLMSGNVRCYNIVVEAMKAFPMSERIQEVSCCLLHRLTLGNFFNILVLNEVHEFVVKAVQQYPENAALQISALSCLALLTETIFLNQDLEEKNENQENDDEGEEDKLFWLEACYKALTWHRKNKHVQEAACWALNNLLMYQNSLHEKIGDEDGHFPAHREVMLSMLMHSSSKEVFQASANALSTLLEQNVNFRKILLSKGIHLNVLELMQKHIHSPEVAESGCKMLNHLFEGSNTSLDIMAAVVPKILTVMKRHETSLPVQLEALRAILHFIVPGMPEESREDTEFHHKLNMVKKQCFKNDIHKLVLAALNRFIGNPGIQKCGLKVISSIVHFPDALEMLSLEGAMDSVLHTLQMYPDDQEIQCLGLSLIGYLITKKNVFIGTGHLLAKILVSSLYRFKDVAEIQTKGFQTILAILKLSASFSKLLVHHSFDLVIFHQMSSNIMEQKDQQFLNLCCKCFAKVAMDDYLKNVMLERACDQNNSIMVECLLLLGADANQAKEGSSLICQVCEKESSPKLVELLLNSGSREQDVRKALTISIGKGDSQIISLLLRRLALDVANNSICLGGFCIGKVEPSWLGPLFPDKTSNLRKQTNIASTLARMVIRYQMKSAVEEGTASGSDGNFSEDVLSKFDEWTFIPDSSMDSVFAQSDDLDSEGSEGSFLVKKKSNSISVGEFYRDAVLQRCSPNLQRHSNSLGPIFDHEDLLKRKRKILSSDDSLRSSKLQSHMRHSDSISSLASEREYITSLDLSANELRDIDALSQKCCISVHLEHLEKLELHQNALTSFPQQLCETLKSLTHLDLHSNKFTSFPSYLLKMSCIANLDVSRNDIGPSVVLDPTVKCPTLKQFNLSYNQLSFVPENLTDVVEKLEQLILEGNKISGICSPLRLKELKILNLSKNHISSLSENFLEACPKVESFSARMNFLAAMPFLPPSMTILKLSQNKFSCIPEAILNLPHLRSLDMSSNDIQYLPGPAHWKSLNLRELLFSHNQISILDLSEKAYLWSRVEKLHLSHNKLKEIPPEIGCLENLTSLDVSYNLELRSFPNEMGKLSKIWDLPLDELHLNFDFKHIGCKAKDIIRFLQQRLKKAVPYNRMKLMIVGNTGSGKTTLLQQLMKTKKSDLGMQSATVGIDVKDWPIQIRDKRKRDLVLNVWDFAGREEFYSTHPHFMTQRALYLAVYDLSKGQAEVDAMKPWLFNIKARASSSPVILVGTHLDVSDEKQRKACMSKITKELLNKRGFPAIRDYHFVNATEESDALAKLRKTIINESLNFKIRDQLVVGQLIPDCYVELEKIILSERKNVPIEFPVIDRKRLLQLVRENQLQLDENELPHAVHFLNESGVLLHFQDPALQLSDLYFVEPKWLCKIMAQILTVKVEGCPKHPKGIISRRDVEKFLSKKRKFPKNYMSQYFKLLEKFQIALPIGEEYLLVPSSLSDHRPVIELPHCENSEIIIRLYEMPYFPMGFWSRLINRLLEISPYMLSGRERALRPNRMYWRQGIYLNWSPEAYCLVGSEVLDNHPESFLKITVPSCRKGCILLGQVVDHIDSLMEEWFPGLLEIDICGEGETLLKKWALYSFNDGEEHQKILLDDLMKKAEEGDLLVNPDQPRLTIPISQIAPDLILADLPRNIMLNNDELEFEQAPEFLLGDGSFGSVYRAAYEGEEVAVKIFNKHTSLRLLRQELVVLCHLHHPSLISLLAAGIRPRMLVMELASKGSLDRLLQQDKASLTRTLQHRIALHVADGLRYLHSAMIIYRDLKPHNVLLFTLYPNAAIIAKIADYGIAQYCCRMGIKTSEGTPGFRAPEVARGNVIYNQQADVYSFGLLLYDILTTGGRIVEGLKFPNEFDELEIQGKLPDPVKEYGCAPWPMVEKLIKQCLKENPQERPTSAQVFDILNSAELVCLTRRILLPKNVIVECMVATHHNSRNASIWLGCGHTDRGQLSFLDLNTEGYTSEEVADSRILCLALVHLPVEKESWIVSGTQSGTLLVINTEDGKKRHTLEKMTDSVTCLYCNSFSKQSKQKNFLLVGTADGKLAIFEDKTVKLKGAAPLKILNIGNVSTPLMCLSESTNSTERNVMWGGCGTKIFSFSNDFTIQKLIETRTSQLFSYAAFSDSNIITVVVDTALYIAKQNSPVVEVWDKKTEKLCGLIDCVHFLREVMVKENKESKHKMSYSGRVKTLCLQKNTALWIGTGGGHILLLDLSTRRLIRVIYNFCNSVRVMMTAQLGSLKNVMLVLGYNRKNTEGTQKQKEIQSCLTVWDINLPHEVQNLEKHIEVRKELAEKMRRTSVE
# LYN (human) = LYN (human) (UniProt P07948)
# [1] = tested on: MAP2K6 (human), P52564 [S207E/T211E]
# MAP3K2 (human) = MAP3K2 (human) (UniProt Q9Y2U5)
# MAP4K2 (human) = MAP4K2 (human) (UniProt Q12851)
# MAP4K4 (human) = MAP4K4 (human) (UniProt O95819)
# MAPK8 (human) = MAPK8 (human) (UniProt P45983)
# MARK3 (human) = MARK3 (human) (UniProt P27448)
# MARK4 (human) = MARK4 (human) (UniProt Q96L34)
# MINK1 (human) = MINK1 (human) (UniProt Q8N4C8)
# [2] = tested on: MKNK1 (human), Q9BUB5 [T385D; 165-205 del]
# NEK3 (human) = NEK3 (human) (UniProt P51956)
# NEK6 (human) = NEK6 (human) (UniProt Q9HC98)
# NEK7 (human) = NEK7 (human) (UniProt Q8TDX7)
# NTRK2 (human) = NTRK2 (human) (UniProt Q16620)
# PRKACA (human) = PRKACA (human) (UniProt P17612)
# PRKCB1 (human) = PRKCB1 (human) (UniProt P05771)
# PRKCH (human) = PRKCH (human) (UniProt P24723)
# ROS1 (human) = ROS1 (human) (UniProt P08922)
# RPS6KB2 (human) = RPS6KB2 (human) (UniProt Q9UBS0)
# SIK2 (human) = SIK2 (human) (UniProt Q9H0K1)
# SRMS (human) = SRMS (human) (UniProt Q9H3Y6)
# SRPK2 (human) = SRPK2 (human) (UniProt P78362)
# STK17A (human) = STK17A (human) (UniProt Q9UEE5)
# STK24 (human) = STK24 (human) (UniProt Q9Y6E0)
# STK25 (human) = STK25 (human) (UniProt O00506)
# TAOK2 (human) = TAOK2 (human) (UniProt Q9UL54)
# ULK2 (human) = ULK2 (human) (UniProt Q8IYT8)
# WNK2 (human) = WNK2 (human) (UniProt Q9Y3S1)
# Chain of ADRBK1 (human) (P25098 whole entry, looked up): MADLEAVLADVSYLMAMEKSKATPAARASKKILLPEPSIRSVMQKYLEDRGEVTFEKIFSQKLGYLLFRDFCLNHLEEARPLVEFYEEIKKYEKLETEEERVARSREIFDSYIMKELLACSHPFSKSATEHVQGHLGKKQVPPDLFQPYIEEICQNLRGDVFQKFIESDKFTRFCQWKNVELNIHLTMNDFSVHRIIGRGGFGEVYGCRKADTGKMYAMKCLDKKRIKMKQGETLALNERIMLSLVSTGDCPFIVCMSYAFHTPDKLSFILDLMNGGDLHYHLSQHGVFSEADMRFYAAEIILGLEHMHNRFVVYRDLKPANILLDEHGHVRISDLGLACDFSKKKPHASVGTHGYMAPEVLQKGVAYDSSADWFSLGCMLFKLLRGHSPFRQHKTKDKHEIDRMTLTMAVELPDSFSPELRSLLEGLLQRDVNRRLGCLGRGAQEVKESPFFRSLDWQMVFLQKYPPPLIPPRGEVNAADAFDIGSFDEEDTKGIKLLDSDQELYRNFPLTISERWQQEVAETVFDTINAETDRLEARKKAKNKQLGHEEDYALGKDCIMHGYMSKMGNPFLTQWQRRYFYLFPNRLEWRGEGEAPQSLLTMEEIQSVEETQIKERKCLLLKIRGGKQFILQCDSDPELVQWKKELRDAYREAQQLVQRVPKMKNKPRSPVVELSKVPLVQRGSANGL
structure (smiles),measurement,setting,value
CS(=O)(=O)CCNCc1ccc(-c2ccc3ncnc(Nc4ccc(OCc5cccc(F)c5)c(Cl)c4)c3c2)o1,residual activity,ACVR1 (human),106%
same,residual activity,ADRBK1 (human),94.8%
same,residual activity,BTK (human),103%
same,residual activity,CDK4 CCND1 (human),94.8%
same,residual activity,CHEK1 (human),100%
same,residual activity,CSNK1G2 (human),99.5%
same,residual activity,CSNK2A1 (human),121%
same,residual activity,DAPK2 (human),103%
same,residual activity,DYRK1A (human),101%
same,residual activity,FGR (human),84.8%
same,residual activity,GSK3A (human),105%
same,residual activity,HIPK1 (human),97.1%
same,residual activity,IRAK4 (human),91.5%
same,residual activity,LRRK2 (human),76.9%
same,residual activity,LYN (human),103% and 104%
same,residual activity,[1],95.4%
same,residual activity,MAP3K2 (human),123%
same,residual activity,MAP4K2 (human),104%
same,residual activity,MAP4K4 (human),111%
same,residual activity,MAPK8 (human),91.9%
same,residual activity,MARK3 (human),95.9%
same,residual activity,MARK4 (human),104%
same,residual activity,MINK1 (human),111%
same,residual activity,[2],94.5%
same,residual activity,NEK3 (human),99.6%
same,residual activity,NEK6 (human),93.7%
same,residual activity,NEK7 (human),98.7%
same,residual activity,NTRK2 (human),98.8%
same,residual activity,PRKACA (human),96%
same,residual activity,PRKCB1 (human),93.5%
same,residual activity,PRKCH (human),110%
same,residual activity,ROS1 (human),107%
same,residual activity,RPS6KB2 (human),100%
same,residual activity,SIK2 (human),101%
same,residual activity,SRMS (human),97.9%
same,residual activity,SRPK2 (human),88%
same,residual activity,STK17A (human),89.7%
same,residual activity,STK24 (human),106%
same,residual activity,STK25 (human),102%
same,residual activity,TAOK2 (human),105%
same,residual activity,ULK2 (human),104%
same,residual activity,WNK2 (human),102%
COc1cc2ncnc(Nc3ccc(Oc4ccccc4)cc3)c2cc1OC,residual activity,ACVR1 (human),93.7%
same,residual activity,ADRBK1 (human),101%
same,residual activity,BTK (human),38.8%
same,residual activity,CDK4 CCND1 (human),113%
same,residual activity,CHEK1 (human),97.4%
same,residual activity,CSNK1G2 (human),99.9%
same,residual activity,CSNK2A1 (human),114%
same,residual activity,DAPK2 (human),102%
same,residual activity,DYRK1A (human),84.6%
same,residual activity,FGR (human),8.91%
same,residual activity,GSK3A (human),97%
same,residual activity,HIPK1 (human),102%
same,residual activity,IRAK4 (human),112%
same,residual activity,LRRK2 (human),65.3%
same,residual activity,LYN (human),21.6% and 42.6%
same,residual activity,[1],102%
same,residual activity,MAP3K2 (human),102%
same,residual activity,MAP4K2 (human),104%
same,residual activity,MAP4K4 (human),90.5%
same,residual activity,MAPK8 (human),91.8%
same,residual activity,MARK3 (human),108%
same,residual activity,MARK4 (human),105%
same,residual activity,MINK1 (human),101%
same,residual activity,[2],98.9%
same,residual activity,NEK3 (human),98.4%
same,residual activity,NEK6 (human),93%
same,residual activity,NEK7 (human),103%
same,residual activity,NTRK2 (human),103%
same,residual activity,PRKACA (human),102%
same,residual activity,PRKCB1 (human),109%
same,residual activity,PRKCH (human),87.3%
same,residual activity,ROS1 (human),95.3%
same,residual activity,RPS6KB2 (human),97.4%
same,residual activity,SIK2 (human),97.7%
same,residual activity,SRMS (human),31.6%
same,residual activity,SRPK2 (human),101%
same,residual activity,STK17A (human),96.3%
same,residual activity,STK24 (human),91.6%
same,residual activity,STK25 (human),109%
same,residual activity,TAOK2 (human),97.8%
same,residual activity,ULK2 (human),97.8%
same,residual activity,WNK2 (human),88.1%
O=C1NC(=O)c2c1c1c3ccccc3[nH]c1n1cncc21,residual activity,ACVR1 (human),103%
same,residual activity,ADRBK1 (human),107%
same,residual activity,BTK (human),83.9%
same,residual activity,CDK4 CCND1 (human),86%
same,residual activity,CHEK1 (human),24.6%
same,residual activity,CSNK1G2 (human),63.4%
same,residual activity,CSNK2A1 (human),52.6%
same,residual activity,DAPK2 (human),43.8%
same,residual activity,DYRK1A (human),89.1%
same,residual activity,FGR (human),94.8%
same,residual activity,GSK3A (human),10.4%
same,residual activity,HIPK1 (human),82.6%
same,residual activity,IRAK4 (human),84.8%
same,residual activity,LRRK2 (human),61.3%
same,residual activity,LYN (human),94.8% and 96.2%
same,residual activity,[1],65.7%
same,residual activity,MAP3K2 (human),97.9%
same,residual activity,MAP4K2 (human),51.8%
same,residual activity,MAP4K4 (human),21.2%
same,residual activity,MAPK8 (human),83.9%
same,residual activity,MARK3 (human),29.8%
same,residual activity,MARK4 (human),26.8%
same,residual activity,MINK1 (human),48.2%
same,residual activity,[2],56.3%
same,residual activity,NEK3 (human),89.3%
same,residual activity,NEK6 (human),88.7%
same,residual activity,NEK7 (human),80.3%
same,residual activity,NTRK2 (human),49%
same,residual activity,PRKACA (human),98.2%
same,residual activity,PRKCB1 (human),95%
same,residual activity,PRKCH (human),74.8%
same,residual activity,ROS1 (human),77%
same,residual activity,RPS6KB2 (human),74.7%
same,residual activity,SIK2 (human),91.9%
same,residual activity,SRMS (human),100%
same,residual activity,SRPK2 (human),80.2%
same,residual activity,STK17A (human),36.6%
same,residual activity,STK24 (human),48.4%
same,residual activity,STK25 (human),72.5%
same,residual activity,TAOK2 (human),89.4%
same,residual activity,ULK2 (human),95.5%
same,residual activity,WNK2 (human),86.6%
Cc1nc(-c2ccccc2)c(-c2ccncc2)o1,residual activity,ACVR1 (human),104%
same,residual activity,ADRBK1 (human),100%
same,residual activity,BTK (human),98.3%
same,residual activity,CDK4 CCND1 (human),114%
same,residual activity,CHEK1 (human),106%
same,residual activity,CSNK1G2 (human),92.2%
same,residual activity,CSNK2A1 (human),109%
same,residual activity,DAPK2 (human),106%
same,residual activity,DYRK1A (human),98.4%
same,residual activity,FGR (human),89.7%
same,residual activity,GSK3A (human),112%
same,residual activity,HIPK1 (human),102%
same,residual activity,IRAK4 (human),107%
same,residual activity,LRRK2 (human),96.8%
same,residual activity,LYN (human),104% and 97.4%
same,residual activity,[1],99.3%
same,residual activity,MAP3K2 (human),102%
same,residual activity,MAP4K2 (human),106%
same,residual activity,MAP4K4 (human),85.1%
same,residual activity,MAPK8 (human),99.5%
same,residual activity,MARK3 (human),107%
same,residual activity,MARK4 (human),103%
same,residual activity,MINK1 (human),97.9%
same,residual activity,[2],123%
same,residual activity,NEK3 (human),93.7%
same,residual activity,NEK6 (human),94.4%
same,residual activity,NEK7 (human),102%
same,residual activity,NTRK2 (human),103%
same,residual activity,PRKACA (human),98.9%
same,residual activity,PRKCB1 (human),95.2%
same,residual activity,PRKCH (human),88.1%
same,residual activity,ROS1 (human),96%
same,residual activity,RPS6KB2 (human),96%
same,residual activity,SIK2 (human),86.2%
same,residual activity,SRMS (human),102%
same,residual activity,SRPK2 (human),92.3%
same,residual activity,STK17A (human),99.5%
same,residual activity,STK24 (human),96.7%
same,residual activity,STK25 (human),104%
same,residual activity,TAOK2 (human),101%
same,residual activity,ULK2 (human),102%
same,residual activity,WNK2 (human),101%
